According to US10022422B2, “Peptidomimetic macrocycles” (priority 2009, dated 2018):
Where a SMILES comes first, the peptide text is derived from it. Bridges are numbered along the chain shown (N, C = ends). [ ]: non-standard residue; d: D form. R8 = C=CCCCCCC[C@@](C)(N)C(=O)O; S5 = C=CCCC[C@](C)(N)C(=O)O; Nle = CCCC[C@H](N)C(=O)O; Aib = CC(C)(N)C(=O)O

Assay: Figure 6
Parameters: AUC,all / AUC,inf: concentration or dose not given beside the values
Source text: Table printed on a drawing sheet, Figure 6
First reader's note: The head SP-2 is printed shifted to the left of its column of values.

| Structure (SMILES) | AUC,all | AUC,inf | Cl | Cmax, obs | MRT | T1/2 | Vss |
| --- | --- | --- | --- | --- | --- | --- | --- |
| CCCC[C@H](NC(C)=O)C(=O)N[C@@H](CC(=O)O)C(=O)N[C@H](C(=O)N[C@@H](CC(N)=O)C(=O)N1CCC[C@H]1C(=O)N[C@H](C(=O)N[C@@H](CC(C)C)C(=O)N[C@@H](CC(C)C)C(=O)N[C@@H](Cc1ccccc1)C(=O)N[C@@H](CC(C)C)C(=O)N[C@@H](CCCCN)C(=O)N[C@H](C(=O)N1CCC[C@H]1C(=O)N[C@@H](C)C(=O)N[C@@H](CCC(N)=O)C(N)=O)C(C)C)[C@@H](C)O)C(C)C [SP-1, Ac-NleDVNPTLLFLKVPAQ-NH2] | 1606 ng·h/mL | 1616 ng·h/mL | 31.22 mL/min/kg | 7742 ng/mL | 0.13 h | 0.16 h | 0.241 L/kg |
| CCCC[C@H](NC(C)=O)C(=O)N[C@@H](CC(=O)O)C(=O)N[C@H](C(=O)N[C@@H](CC(N)=O)C(=O)NC(C)(C)C(=O)N[C@H](C(=O)N[C@@H](CC(C)C)C(=O)N[C@@H](CC(C)C)C(=O)N[C@@H](Cc1ccccc1)C(=O)N[C@@H](CC(C)C)C(=O)N[C@@H](CCCCN)C(=O)N[C@H](C(=O)NC(C)(C)C(=O)N[C@@H](C)C(=O)N[C@@H](CCC(N)=O)C(N)=O)C(C)C)[C@@H](C)O)C(C)C [SP-2, Ac-NleDVNAibTLLFLKVAibAQ-NH2] (Ac-[Nle]DVN[Aib]TLLFLKV[Aib]AQ-NH2) | 3360 ng·h/mL | 3385 ng·h/mL | 15 mL/min/kg | 8145 ng/mL | 0.41 h | 0.33 h | 0.366 L/kg |
| CCCC[C@H](NC(C)=O)C(=O)N[C@@H](CC(=O)O)C(=O)N[C@H](C(=O)N[C@@H](CC(N)=O)C(=O)NC(C)(C)C(=O)N[C@H](C(=O)N[C@@H](CC(C)C)C(=O)N[C@@H](CC(C)C)C(=O)N[C@@H](Cc1ccccc1)C(=O)N[C@@]1(C)CCCC=CCCC[C@@](C)(C(=O)N[C@@H](CCCNC(=N)N)C(N)=O)NC(=O)[C@H](C)NC(=O)[C@H](C(C)C)NC(=O)[C@H](CCCCN)NC1=O)[C@@H](C)O)C(C)C [SP-6, Ac-NleDVNAibTLLF$KVA$R-NH2] (Ac-[Nle]DVN[Aib]TLLF[S5]KVA[S5]R-NH2; staple 10-14) | 10894 ng·h/mL | 10976 ng·h/mL | 4.65 mL/min/kg | 12564 ng/mL | 1.25 h | 1.29 h | 0.348 L/kg |
| CCCC[C@H](NC(C)=O)C(=O)N[C@@H](CC(=O)O)C(=O)N[C@H](C(=O)N[C@@H](CC(N)=O)C(=O)NC(C)(C)C(=O)N[C@H](C(=O)N[C@@H](CC(C)C)C(=O)N[C@@]1(C)CCCC=CCCC[C@@](C)(C(=O)N[C@@H](C)C(=O)N[C@@H](C)C(=O)N[C@@H](CCC(N)=O)C(N)=O)NC(=O)[C@H](CCCCN)NC(=O)[C@H](CC(C)C)NC(=O)[C@H](Cc2ccccc2)NC1=O)[C@@H](C)O)C(C)C [SP-9, Ac-NleDVNAibTL$FLK$AAQ-NH2] (Ac-[Nle]DVN[Aib]TL[S5]FLK[S5]AAQ-NH2; staple 8-12) | 8190 ng·h/mL | 11950 ng·h/mL | 5.67 mL/min/kg | 9766 ng/mL | 1.41 h | 1.59 h | 0.363 L/kg |
| CCCC[C@H](NC(C)=O)C(=O)N[C@@H](CC(=O)O)C(=O)N[C@H](C(=O)N[C@@H](CC(N)=O)C(=O)N1CCC[C@H]1C(=O)N[C@H](C(=O)N[C@@H](CC(C)C)C(=O)N[C@@]1(C)CCCC=CCCC[C@@](C)(C(=O)N[C@@H](C)C(=O)N[C@@H](C)C(=O)N[C@@H](CCC(N)=O)C(N)=O)NC(=O)[C@H](CCCCN)NC(=O)[C@H](CC(C)C)NC(=O)[C@H](Cc2ccccc2)NC1=O)[C@@H](C)O)C(C)C [SP-10, Ac-NleDVNPTL$FLK$AAQ-NH2] (Ac-[Nle]DVNPTL[S5]FLK[S5]AAQ-NH2; staple 8-12) | 5770 ng·h/mL | 5800 ng·h/mL | 8.85 mL/min/kg | 11408 ng/mL | 0.55 h | 0.56 h | 0.29 L/kg |
| CCCC[C@H](NC(C)=O)C(=O)N[C@@H](CC(=O)O)C(=O)N[C@H](C(=O)N[C@@H](CC(N)=O)C(=O)N1CCC[C@H]1C(=O)N[C@H](C(=O)N[C@@H](CC(C)C)C(=O)N[C@@H](CC(C)C)C(=O)N[C@@H](Cc1ccccc1)C(=O)N[C@@]1(C)CCCC=CCCC[C@@](C)(C(=O)N[C@@H](CCCNC(=N)N)C(N)=O)NC(=O)[C@H](C)NC(=O)[C@H](C(C)C)NC(=O)[C@H](CCCCN)NC1=O)[C@@H](C)O)C(C)C [SP-11, Ac-NleDVNPTLLF$KVA$R-NH2] (Ac-[Nle]DVNPTLLF[S5]KVA[S5]R-NH2; staple 10-14) | 9065 ng·h/mL | 9100 ng·h/mL | 5.67 mL/min/kg | 18748 ng/mL | 0.52 h | 0.54 h | 0.178 L/kg |
| CCCC[C@H](NC(C)=O)C(=O)N[C@@H](CC(=O)O)C(=O)N[C@H](C(=O)N[C@@H](CC(N)=O)C(=O)NC(C)(C)C(=O)N[C@H](C(=O)N[C@]1(C)CCCCCCC=CCCC[C@@](C)(C(=O)N[C@@H](CCCNC(=N)N)C(N)=O)NC(=O)[C@H](C)NC(=O)[C@H](C(C)C)NC(=O)[C@H](CCCCN)NC(=O)[C@H](CC(C)C)NC(=O)[C@H](Cc2ccccc2)NC(=O)[C@H](CC(C)C)NC1=O)[C@@H](C)O)C(C)C [SP-15, Ac-NlcDVNAibT$r8LFLKVA$R-NH2] (Ac-[Nle]DVN[Aib]T[R8]LFLKVA[S5]R-NH2; staple 7-14) | 23300 ng·h/mL | 25410 ng·h/mL | 1.97 mL/min/kg | 26524 ng/mL | 1.92 h | 1.49 h | 0.226 L/kg |

Assay: not given

| Structure (SMILES) | AUC,inf | AUC,last | Cl | MRT | T1/2 | Vss |
| --- | --- | --- | --- | --- | --- | --- |
| CCCC[C@H](NC(C)=O)C(=O)N[C@@H](CC(=O)O)C(=O)N[C@H](C(=O)N[C@@H](CC(N)=O)C(=O)NC(C)(C)C(=O)N[C@H](C(=O)N[C@@H](CC(C)C)C(=O)N[C@@H](CC(C)C)C(=O)N[C@@H](Cc1ccccc1)C(=O)N[C@@]1(C)CCCC=CCCC[C@@](C)(C(=O)N[C@@H](CCC(N)=O)C(N)=O)NC(=O)[C@H](C)NC(=O)[C@H](C(C)C)NC(=O)[C@H](CCCCN)NC1=O)[C@@H](C)O)C(C)C (single isomer, unassigned) [SP-8 IV Dose] | 46700 ng·h/mL | 46600 ng·h/mL | 1.05 mL/min/kg | 2 h | 1 h | 0.105 L/kg |
| CCCC[C@H](NC(C)=O)C(=O)N[C@@H](CC(=O)O)C(=O)N[C@H](C(=O)N[C@@H](CC(N)=O)C(=O)NC(C)(C)C(=O)N[C@H](C(=O)N[C@@H](CC(C)C)C(=O)N[C@@H](CC(C)C)C(=O)N[C@@H](Cc1ccccc1)C(=O)N[C@@]1(C)CCCC=CCCC[C@@](C)(C(=O)N[C@@H](CCC(N)=O)C(N)=O)NC(=O)[C@H](C)NC(=O)[C@H](C(C)C)NC(=O)[C@H](CCCCN)NC1=O)[C@@H](C)O)C(C)C (single isomer, unassigned) [SP-8 Subcutaneous] | 10200 ng·h/mL | 9690 ng·h/mL | 4.58 mL/min/kg | 13 h | 10 h | 3.629 L/kg |
